{
  "source": "patent US10330678B2",
  "about": "“Methods and systems for modulating hormones and related methods, agents and compositions” (California Institute of Technology, priority 2010, dated 2019)",
  "key": {"NCI-H716 cells": {"test_system": "NCI-H716 cells", "assay": "GLP-1 release from endocrine cell line NCI-H716 (GLP-1 RIA kit)", "type": "cell-based", "description": "Endocrine cell lines of NCI-H716 cells were used for testing release of GLP-1 triggered by various possible ligands.\nNCI-H716 cells were incubated in serum-free DME/F12 media containing vehicle (0.01% DMSO) with a candidate ligand at the indicated concentrations. Secretion active GLP-1 in media was measured with GLP-1 RIA kit (Linco Research, Missouri, USA). The experiments for all groups have been conducted in duplicates."}, "hTAS2R47": {"target": "T1, hTAS2R47 (Homo sapiens, UniProt P59541)", "T1 sequence (P59541 1-319)": "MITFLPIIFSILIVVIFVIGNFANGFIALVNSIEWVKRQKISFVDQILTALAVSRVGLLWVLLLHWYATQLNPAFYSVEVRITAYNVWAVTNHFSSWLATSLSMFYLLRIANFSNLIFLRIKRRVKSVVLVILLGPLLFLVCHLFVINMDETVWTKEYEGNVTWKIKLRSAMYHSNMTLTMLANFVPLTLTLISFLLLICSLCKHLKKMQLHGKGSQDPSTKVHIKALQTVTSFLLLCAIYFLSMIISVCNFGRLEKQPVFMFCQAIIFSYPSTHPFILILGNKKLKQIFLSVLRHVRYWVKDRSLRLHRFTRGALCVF", "settings": "observed by Pronin et al. [Pronin 2004]; cited from earlier work"}, "male Sprague-Dawley rats": {"test_system": "male Sprague-Dawley rats", "procedure": "The rats were then euthanized 45 min later and removed blood via intracardiac puncture and measured PYY in the blood by a recently modified radioimmunoassay using CURE antibody 9153 (Gift of J Reeve, University of California, Los Angeles.)."}, "STC-5 cells": {"test_system": "STC-5 cells", "settings": "30 minutes incubation, PTC at various concentrations, versus vehicle (FIGS. 24A, 24B)", "procedure": "In GLP-1 release experiments, selected endocrine cell lines of STC-5 cells or NCI-H716 cells were used for testing release of GLP-1 triggered by various possible ligands. Endocrine cells were incubated in serum-free DME/F12 media containing vehicle (0.01% DMSO) and a candidate ligand of certain concentration and for a certain period of incubation time. After incubation, secretion active GLP-1 in media was measured with GLP-1 RIA kit (Linco Research®, Missouri, USA).\nSecretion of active GLP-1 in media was measured with GLP-1 RIA kit (Linco Research, Missouri, USA). The experiments for all groups have been conducted in duplicates."}, "bitter taste": {"test_system": "bitter taste", "settings": "average; cited from earlier work"}, "[1]": {"settings": "summary of Table 2, versus control"}, "[2]": {"settings": "NCI-H716 cells, ligand concentration 10 μm, duplicates, control 58.47"}},
  "note": "Where a name gives a salt, the structure may show the parent alone. Read-outs that look alike come from different tables or passages of the source.",
  "data": [
    {"smiles": "O=C(O[C@@H]1Cc2c(O)cc(O)cc2O[C@@H]1c1cc(O)c(O)c(O)c1)c1cc(O)c(O)c(O)c1", "note": "[Epigallocatechin gallate]", "values": [
      {"measurement": "GLP-1 (pmol/mg protein)", "setting": "NCI-H716 cells; NCI-H716 cells, ligand concentration 1 μm, duplicates, control 58.47", "value": 91.15, "unit": "pmol/mg protein"},
      {"measurement": "effect on release of GLP-1 from NCI-H716 cells (in words)", "setting": "NCI-H716 cells; [1]", "value": "increase the release of GLP-1"}
    ]},
    {"smiles": "C=CCSC", "note": "[Allyl methyl sulfide]", "values": [
      {"measurement": "GLP-1 (pmol/mg protein)", "setting": "NCI-H716 cells; [2]", "value": 91.547, "unit": "pmol/mg protein"},
      {"measurement": "effect on release of GLP-1 from NCI-H716 cells (in words)", "setting": "NCI-H716 cells; [1]", "value": "increase the release of GLP-1"}
    ]},
    {"smiles": "COc1ccc2cc3[n+](cc2c1OC)CCc1cc2c(cc1-3)OCO2", "note": "[Berberine chloride]", "values": [
      {"measurement": "GLP-1 (pmol/mg protein)", "setting": "NCI-H716 cells; [2]", "value": 86.41, "unit": "pmol/mg protein"},
      {"measurement": "effect on release of GLP-1 from NCI-H716 cells (in words)", "setting": "NCI-H716 cells; [1]", "value": "increase the release of GLP-1"}
    ]},
    {"smiles": "O=C1NS(=O)(=O)c2cc([N+](=O)[O-])ccc21", "note": "[Compound 6NS, 6-Nitro saccharin]", "values": [
      {"measurement": "activation of hTAS2R47 (in words)", "setting": "hTAS2R47", "value": "activated the receptor to a lesser extent"}
    ]},
    {"smiles": "O=c1oc2c(O)c(O)cc3c(=O)oc4c(O)c(O)cc1c4c23", "note": "[Ellagic acid]", "values": [
      {"measurement": "GLP-1 (pmol/mg protein)", "setting": "NCI-H716 cells; [2]", "value": 77.25, "unit": "pmol/mg protein"},
      {"measurement": "effect on release of GLP-1 from NCI-H716 cells (in words)", "setting": "NCI-H716 cells; [1]", "value": "increase the release of GLP-1"}
    ]},
    {"smiles": "O=C1NS(=O)(=O)c2cccc([N+](=O)[O-])c21", "note": "[Compound 4NS, 4-Nitro saccharin]", "values": [
      {"measurement": "activation of hTAS2R47 (in words)", "setting": "hTAS2R47", "value": "very weak inverse agonist"}
    ]},
    {"smiles": "CC(C)=CCC[C@]1(C)[C@@H](CC=C(C)C)C[C@@]2(CC=C(C)C)C(=O)[C@]1(C(=O)C(C)C)C(=O)C(CC=C(C)C)=C2O", "note": "[Hyperforin]", "values": [
      {"measurement": "GLP-1 (pmol/mg protein)", "setting": "NCI-H716 cells; NCI-H716 cells, ligand concentration 5 μg/ml, duplicates, control 58.47", "value": 104.87, "unit": "pmol/mg protein"},
      {"measurement": "effect on release of GLP-1 from NCI-H716 cells (in words)", "setting": "NCI-H716 cells; [1]", "value": "increase the release of GLP-1"}
    ]},
    {"smiles": "NC(=S)Nc1ccccc1", "note": "[PTC, Phenylthiocarbamide]", "values": [
      {"measurement": "change of PYY levels versus saline gavaged rats (in words)", "setting": "male Sprague-Dawley rats; 5 mM PTC in 5 ml saline by gastric gavage, 45 min", "value": "doubling"},
      {"measurement": "PYY in the blood", "setting": "male Sprague-Dawley rats; 5 mM PTC in 5 ml saline by gastric gavage, 45 min later, n=5, saline rats 71+/−35 pM", "value": "154 ± 44", "unit": "pM"},
      {"measurement": "volume of fluid remaining in the stomachs", "setting": "male Sprague-Dawley rats; at sacrifice 45 min after gavage of 5 ml, saline-treated rats less than 0.5 ml", "value": "1 to 2", "unit": "mL"},
      {"measurement": "GLP-1 (pmol/mg protein)", "setting": "NCI-H716 cells", "value": 98.73, "unit": "pmol/mg protein"},
      {"measurement": "effect on release of GLP-1 from NCI-H716 cells (in words)", "setting": "NCI-H716 cells", "value": "increase the release of GLP-1"},
      {"measurement": "effect on GLP-1 release from STC-5 cells (in words)", "setting": "STC-5 cells", "value": "large effect"}
    ]},
    {"smiles": "CC(=O)c1c(O)c(C)c(O)c(Cc2c(O)c3c(c(C(=O)/C=C/c4ccccc4)c2O)OC(C)(C)C=C3)c1O", "note": "[Rottlerin]", "values": [
      {"measurement": "GLP-1 (pmol/mg protein)", "setting": "NCI-H716 cells; NCI-H716 cells, ligand concentration 0.05%, duplicates, control 58.47", "value": 111.18, "unit": "pmol/mg protein"},
      {"measurement": "effect on release of GLP-1 from NCI-H716 cells (in words)", "setting": "NCI-H716 cells; [1]", "value": "increase the release of GLP-1"}
    ]},
    {"smiles": "C=C[C@H]1C[N@@]2CC[C@H]1C[C@H]2[C@H](O)c1ccnc2ccc(OC)cc12", "note": "[quinine]", "values": [
      {"measurement": "threshold for stimulation of bitter taste", "setting": "bitter taste", "value": 8, "unit": "µM"}
    ]},
    {"smiles": "CC[N+](CC)(CC(=O)Nc1c(C)cccc1C)Cc1ccccc1", "note": "[Denatonium]", "values": [
      {"measurement": "activation of hTAS2R47 (in words)", "setting": "hTAS2R47", "value": "activated strongest"}
    ]},
    {"smiles": "CCCCCCCCCCCC1=C(O)C(=O)C=C(O)C1=O", "note": "[Embelin]", "values": [
      {"measurement": "GLP-1 (pmol/mg protein)", "setting": "NCI-H716 cells; [2]", "value": 83.55, "unit": "pmol/mg protein"}
    ]},
    {"smiles": "c1c2c(cc3c1OCO3)-c1cc3ccc4c(c3c[n+]1CC2)OCO4", "note": "[Coptisine chloride]", "values": [
      {"measurement": "GLP-1 (pmol/mg protein)", "setting": "NCI-H716 cells; [2]", "value": 121.35, "unit": "pmol/mg protein"},
      {"measurement": "effect on release of GLP-1 from NCI-H716 cells (in words)", "setting": "NCI-H716 cells; [1]", "value": "increase the release of GLP-1"}
    ]},
    {"smiles": "CCCC(=O)O", "note": "[Butyrate, reference compound]", "values": [
      {"measurement": "GLP-1 (pmol/mg protein)", "setting": "NCI-H716 cells; NCI-H716 cells, ligand concentration 2.5 mM, duplicates, control 58.47", "value": 100.77, "unit": "pmol/mg protein"}
    ]},
    {"smiles": "CC1(C)[C@@H](O[C@H]2O[C@H](C(=O)O)[C@@H](O)[C@H](O)[C@H]2O[C@@H]2O[C@H](C(=O)O)[C@@H](O)[C@H](O)[C@H]2O)CC[C@]2(C)[C@H]3C(=O)C=C4[C@@H]5C[C@@](C)(C(=O)O)CC[C@]5(C)CC[C@@]4(C)[C@]3(C)CC[C@@H]12", "note": "[Glycyrrhizic acid ammonium salt]", "values": [
      {"measurement": "GLP-1 (pmol/mg protein)", "setting": "NCI-H716 cells; [2]", "value": 71.95, "unit": "pmol/mg protein"},
      {"measurement": "effect on release of GLP-1 from NCI-H716 cells (in words)", "setting": "NCI-H716 cells; [1]", "value": "increase the release of GLP-1"}
    ]},
    {"smiles": "COc1cc(/C=C/C(=O)CC(=O)/C=C/c2ccc(O)c(OC)c2)ccc1O", "note": "[Curcumin]", "values": [
      {"measurement": "GLP-1 (pmol/mg protein)", "setting": "NCI-H716 cells; [2]", "value": 61.52, "unit": "pmol/mg protein"}
    ]}
  ]
}
